Results on three molecules are retold here after publication PMC3838870 (Journal of inorganic biochemistry, 2013).

SMILES strings stand for the structures. Read-outs that look alike come from different tables or passages of the source.

Data set [1] is described as follows: Chelator-induced erythrocyte hemolysis. It is filed as cell-based, human. The following applies: human, human erythrocyte suspension, pH 7.4.
Data set [2] relates to chloroquine-sensitive (3D7) Plasmodium falciparum. The experiment in a line: Parasite growth inhibition, [3H]-hypoxanthine incorporation, 3D7. It is filed as cell-based.
For data set [3], the system named is chloroquine-resistant (7G8) Plasmodium falciparum. The following applies: read-out: Growth inhibition efficacy (IC50), 7G8 P. falciparum; chloroquine-resistant 7G8, mean ± SD (n = 6); previously reported; cited from earlier work.
The test system of data set [4] is chloroquine-sensitive (3D7) Plasmodium falciparum. The following applies: read-out: IC50, 3D7 malaria strain; cited from earlier work.
Data set [5] relates to non-parasitized human erythrocytes. Nature of the data set: Effect of chelators on erythrocyte shape. It is filed as cell-based. The following applies: 2.5–15 μM chelator, 48 h, Giemsa staining.
Data set [6] relates to human erythrocytes. The experiment in a line: Chelator-induced erythrocyte hemolysis. Format: cell-based. To be noted: control 0.0175± 0.0005.
Data set [7] concerns synchronized chloroquine-sensitive P. falciparum (3D7). The experiment in a line: Stage-specific parasite growth. Format: cell-based, Plasmodium falciparum. To be noted: chelator 7.5 μM, 3D7 synchronized at ring-stage.

Regarding `CC(=O)N(O)CCCCCNC(=O)CCC(=O)N(O)CCCCCNC(=O)CCC(=O)N(O)CCCCCN` [DFO, desferrioxamine], in data set [1], the hemolysis at 10 μM amounted to 0.0193 ± 0.0005%, the hemolysis at 20 μM amounted to 0.0182 ± 0.0005%, the hemolysis at 30 μM is 0.0186 ± 0.0008% and the hemolysis at 45 μM was determined as 0.0192 ± 0.0001%. This molecule also gave a hemolysis at 60 μM in data set [1] of 0.0182 ± 0.0002%. For the same molecule, in data set [2] (Plasmodium falciparum, 3D7, 48 h, read-out: Growth inhibition efficacy (IC50), 3D7 P. falciparum), the half-maximal inhibitory concentration (IC50) amounted to 23.4 ± 3.4 µM. In addition, the IC50 in data set [2] (Plasmodium falciparum, 3D7, 48 h, read-out: Growth inhibition efficacy (IC50), 3D7 P. falciparum, chloroquine-sensitive 3D7, 48 h culture, mean ± SD (n = 6)) was 23.5 µM. The IC50 in data set [3] was 18.5 µM.

In data set [1], `Cc1ncc(CO)c(/C=N/NC(=O)c2ccncc2)c1O` [PIH, pyridoxal isonicotinoyl hydrazone] registered a hemolysis at 10 μM of 0.0195 ± 0.0004%, a hemolysis at 15 μM of 0.0188 ± 0.0003%, a hemolysis at 20 μM of 0.019 ± 0.0006% and a hemolysis at 25 μM of 0.0193 ± 0.0004%. The molecule also had a hemolysis at 30 μM in data set [1] of 0.0192 ± 0.0008%. In data set [4], the IC50 was 50 µM.

As to `O=C(NN=Cc1c(O)ccc2ccccc12)c1ccncc1` [compound 311, 2-hydroxy-1-naphthylaldehyde isonicotinoyl hydrazone], the “Effect on erythrocyte shape” value in data set [5] is “no apparent effect on erythrocyte shape”. In addition, the “Supernatant hemoglobin, % MCHC (hemolysis)” value in data set [6] (chelator 0.5 μM) is 0.0193±0.0005 % MCHC; in data set [6] (chelator 1 μM) it was 0.0195±0.0010 % MCHC; in data set [6] (chelator 1.5 μM) it was 0.0200±0.0006 % MCHC; in data set [6] (chelator 2 μM), 0.0203±0.0005 % MCHC; in data set [6] (chelator 3 μM), 0.0197±0.0005 % MCHC. Besides, the IC50 is 4.45 ± 1.7 µM in data set [2] (read-out: Growth inhibition efficacy (IC50), 3D7 P. falciparum, chloroquine-sensitive 3D7, 48 h culture, mean ± SD (n = 6)) and 4.46 ± 0.3 µM in data set [3]. In addition, the “% Inhibition, rings, 24 hour culture” value in data set [7] worked out at 99 ± 8.4%.

One may read the IC50 as the concentration that gives 50% inhibition.
